Results as given in the supplement of paper PMC7840683.
± gives the standard deviation of the averaged measurements.

System: HepaRG
Assay: LDH release cytotoxicity, % of total lysis control; higher = more cytotoxic
Details: 48 h
Method in brief: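 Percent cytotoxicity was scaled between on-plate vehicle and total lysis controls, then averaged over duplicate wells. The cells were single-lot HepaRG on collagen I-coated 96-well plates, exposed for 48 h to eight-point half-log test chemical series topping at 100 µM in serum-free induction medium with 0.5% DMSO. Total lysis wells got 0.1% Triton X, and LDH in 50 µL spent medium was read as resorufin fluorescence (CytoTox-ONE, Tecan Safire).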

Row | SMILES | LDH release cytotoxicity (0.03162 µM) | LDH release cytotoxicity (0.1 µM) | LDH release cytotoxicity (0.3162278 µM) | LDH release cytotoxicity (1 µM) | LDH release cytotoxicity (3.16228 µM) | LDH release cytotoxicity (10 µM) | LDH release cytotoxicity (31.6228 µM) | LDH release cytotoxicity (100 µM) | further results
1 | CN(C)C(=O)C1(N2CCCCC2)CCN(CCC2(c3ccc(Cl)c(Cl)c3)CN(C(=O)c3ccccc3)CCO2)CC1 (configuration not stated) |  |  |  |  |  |  |  |  | LDH release cytotoxicity (0.02988 µM): -0.742 ± 0.13%; LDH release cytotoxicity (0.0945 µM): -0.252 ± 0.56%; LDH release cytotoxicity (0.298835 µM): -0.7 ± 0.3%; LDH release cytotoxicity (0.945 µM): -0.736 ± 0.65%; LDH release cytotoxicity (2.98835 µM): -0.21 ± 0.34%; LDH release cytotoxicity (9.45 µM): 0.674 ± 0.023%; LDH release cytotoxicity (29.8835 µM): 69.1 ± 16%; LDH release cytotoxicity (94.5 µM): 85.4 ± 2.6%
2 | COc1c(Cl)ccc(Cl)c1C(=O)O [Dicamba] | -2.43 ± 1.4% | -1.52 ± 0.043% | -0.804 ± 0.36% | -2.09 ± 0.64% | -0.996 ± 0.75% | -0.906 ± 0.014% | -0.688 ± 0.24% | 0.691 ± 0.52% | 
3 | CC(c1ccc(O)cc1)(c1ccc(O)cc1)c1ccc(O)cc1 [4,4',4''-Ethane-1,1,1-triyltriphenol] | -1.89 ± 0.76% | -1.24 ± 0.1% | -1.7 ± 0.43% | -1.8 ± 0.66% | -0.727 ± 0.39% | -1.47 ± 0.018% | -1.43 ± 0.12% | -0.486 ± 0.26% | 
4 | O=C(O)Cc1cc(I)c(Oc2cc(I)c(O)c(I)c2)c(I)c1 [Tetrac] |  |  |  |  |  |  |  |  | LDH release cytotoxicity (0.0211873 µM): 0.0963 ± 1.1%; LDH release cytotoxicity (0.067 µM): -0.0291 ± 0.51%; LDH release cytotoxicity (0.211873 µM): 0.0359 ± 0.7%; LDH release cytotoxicity (0.67 µM): 0.258 ± 1.1%; LDH release cytotoxicity (2.11873 µM): 1.04 ± 0.39%; LDH release cytotoxicity (6.7 µM): 0.279 ± 0.69%; LDH release cytotoxicity (21.1873 µM): -0.194 ± 0.92%; LDH release cytotoxicity (67 µM): 34 ± 0.74%
5 | CCCCCc1ccc(N)cc1 [4-Pentylaniline] | -0.0179 ± 1.1% | -1.43 ± 0.21% | -0.689 ± 0.038% | -0.976 ± 0.26% | -0.886 ± 0.18% | -0.634 ± 0.16% | -0.209 ± 0.75% | 1.34 ± 0.21% | 
6 | C=CCOC(Cn1ccnc1)c1ccc(Cl)cc1Cl (configuration not stated) [Imazalil] | -1.02 ± 1.2% | -0.85 ± 0.77% | -0.00888 ± 0.2% | -0.601 ± 1.6% | -0.652 ± 0.76% | 0.29 ± 0.16% | 8.422 ± 0.022% | 69.6 ± 12% | 
7 | CCOP(=S)(OCC)SCCSCC [Disulfoton] | -1.14 ± 0.34% | -1.12 ± 0.75% | -1.03 ± 0.2% | -1.51 ± 0.2% | -1.34 ± 0.37% | -1.32 ± 0.63% | -1.01 ± 0.54% | -0.345 ± 0.13% | 
8 | CC(C)=CCC/C(C)=C\CO [(2Z)-3,7-Dimethylocta-2,6-dien-1-ol] | -0.521 ± 1.3% | -0.112 ± 1.1% | 0.637 ± 0.11% | 0.207 ± 0.16% | 0.25 ± 0.08% | 0.588 ± 0.27% | 0.393 ± 0.26% | 1.1 ± 0.14% | 
9 | O=C(O)c1cccc(CC2COc3ccc(OCc4nc5cc(F)ccc5s4)cc3C2O)c1 (configuration not stated) | -0.0534 ± 0.17% | -0.136 ± 0.15% | -0.338 ± 0.55% | -1.53 ± 0.39% | -0.67 ± 0.41% | -0.7031 ± 0.0048% | 0.475 ± 0.99% | 39.6 ± 3.9% | 
10 | COP(=S)(OC)Oc1nc(Cl)c(Cl)cc1Cl [Chlorpyrifos-methyl] |  |  |  |  |  |  |  |  | LDH release cytotoxicity (0.0314647 µM): -1.653 ± 0.012%; LDH release cytotoxicity (0.0995 µM): -0.997 ± 0.086%; LDH release cytotoxicity (0.3146466 µM): -0.895 ± 1.2%; LDH release cytotoxicity (0.995 µM): -1.1 ± 0.81%; LDH release cytotoxicity (3.14647 µM): -1.09 ± 0.5%; LDH release cytotoxicity (9.95 µM): -0.401 ± 0.0061%; LDH release cytotoxicity (31.4647 µM): 0.323 ± 0.39%; LDH release cytotoxicity (99.5 µM): 3.84 ± 0.34%
11 | CCCSP(=O)(OCC)Oc1ccc(Br)cc1Cl (configuration not stated) [Profenofos] |  |  |  |  |  |  |  |  | LDH release cytotoxicity (0.01581 µM): -6.81 ± 0.41%; LDH release cytotoxicity (0.05 µM): -6.73 ± 0.81%; LDH release cytotoxicity (0.1581139 µM): -6.46 ± 0.68%; LDH release cytotoxicity (0.5 µM): -6.51 ± 0.86%; LDH release cytotoxicity (1.5811388 µM): -6.7 ± 1.5%; LDH release cytotoxicity (5 µM): -7.47 ± 0.58%; LDH release cytotoxicity (15.8114 µM): -7.49 ± 1.1%; LDH release cytotoxicity (50 µM): -6.78 ± 0.14%
12 | c1ccc(Nc2ccccc2)cc1 [Diphenylamine] | -0.79 ± 0.82% | -0.775 ± 0.35% | -0.986 ± 0.56% | -1.44 ± 0.19% | -1.13 ± 0.35% | -1 ± 0.56% | 0.0424 ± 0.62% | 3.57 ± 0.064% | 
13 | Oc1ccc2ccccc2c1 [2-Naphthalenol] | -0.471 ± 0.51% | -0.55 ± 0.25% | -0.787 ± 0.15% | -0.57 ± 0.2% | -0.679 ± 0.39% | -0.106 ± 0.093% | 0.851 ± 0.3% | 13.8 ± 0.73% | 
14 | NCCOCCOCCN [2,2'-[Ethane-1,2-diylbis(oxy)]diethanamine] | -0.945 ± 0.74% | -1.12 ± 0.47% | -0.214 ± 0.033% | 0.303 ± 0.8% | 2.6 ± 0.91% | 2.46 ± 0.46% | 1.93 ± 0.86% | 4 ± 0.68% | 
